Assay results: patent EP1985629A1, “Pro-apoptotic molecules and therapeutic uses thereof” (UNIVERSITA DEGLI STUDI DI GENOVA, priority 2007, dated 2008)
Where a SMILES comes first, the peptide text is derived from it. [ ]: non-standard residue; d: D form. Aib = CC(C)(N)C(=O)O

How the values were obtained:
tumour cell lines = assay: DNA flow cytometry (PI/SSC) for apoptosis in tumour cell lines; assay type: cell-based, human; conditions: 4 days
Procedure: • Figure 1 Fluorescence Anisotropy Assay. Average anisotropy values: (open square) binding assay for increasing concentrations of Bcl-XL at a fixed concentration of fluorescent Bak-BH3 peptide. […] The error bars represent standard deviations observed from triplicate experiments. • Figure 2 072RB: cell growth effects. Panel A: Cell growth of U937 cell line treated for four days every 24 h at a 1 µM 072RB concentration and every 48 h at 3, 5, 10 and 30 µM 072RB concentrations. U937 controls at day 4, cell number: 350,000 ±50,000. Number of cells seeded at day 0: 20,000. Arrows indicate treatment time. […] All cells were counted in a Burker chamber and values are expressed as percentage of the untreated control cell number. Only living cells identified by trypan blue exclusion staining were counted. […] Flow cytometry measurements of DNA content (evaluated by propidium iodide (PI) fluorescence intensity) and physical cell side-scattering (evaluated by SSC) in U937 cells treated with Int and 072RB at 10 µM, twice each 48h. […] Three main cell populations can be observed in the bivariate PI/SSC plots, one with low SSC and normal DNA content (that accounts for "live" cells in culture), another with high SSC and normal DNA content (cells undergoing "early stage of apoptosis") and another one with lower PI fluorescence (cells at "late stage of apoptosis" and debris). […]

caspase 3 = assay: Caspase 3 activation (FITC-DEVD-FMK, FACS analysis); assay type: cell-based, human; conditions: for cells positive for activated caspase 3: 24 h; for cells with activated caspase 3: 72 h
Procedure: The activation of caspase-9 (mitochondrial apoptosis) and caspase-3 (activated downstream of caspase-9), was evaluated in cell lines (10^6 cells/well in a 24 wells plate) incubated with different concentrations of 072RB (1, 10 µM for 24h, 48h and 72h, in complete RPMI medium + 10% FCS at 37°C, using the caspase-9 and caspase-3 Detection Kit (Calbiochem, Darmstadt, Germany). The assay utilizes LEHD-FMK or DEVD-FMK conjugated to fluorescein-isothiocyanate (FITC) as caspase-9 or caspase-3 in situ marker. FITC-LEHD-FMK and FITC-DEVD-FMK are cell permeable, non toxic, and irreversibly bind only to activated caspase-9 or -3 in apoptotic cells. Samples were run on a flow cytometer (FACSort, Becton Dickinson) equipped with an argon ion laser exiting FITC at 488nm, At least 10^5 events were analysed for each sample using the CellQuest computer program. Data are expressed as Log green fluorescence intensity (a.u.) vs cell number. Calibration was assessed with CALIBRITE particles (Becton Dickinson) using the AutoCOMP computer program.
Cells were incubated for 24, 48 and 72 h with 072RB (10 µM) or Int (10 µM), together with FITC-LEDH-FMK or FITC-DEVD-FMK, to detect caspase 9 and caspase 3 activation, respectively (FACS analysis). […] Furthermore, caspase 3, a downstream substrate of caspase 9, was progressively activated at increasing incubation times with 072RB. After 24 h of incubation 30% of U937, 35% of Namalwa, 22% of Jurkat cells, respectively, were positive for activated caspase 3; after 72 h of incubation 70% of U937, 60% of Namalwa, and 35% of Jurkat cells, respectively, had activated caspase 3. On the contrary, a negligible fraction of cells incubated with the Int peptide (1-3%), a % similar to that observed in untreated cells, expressed activated caspase 3.

Molecule | cell death (alive, early- and late-apoptotic fractions) (tumour cell lines; three tumour cell lines, 5 to 10 µM) | cells positive for activated caspase 3 (caspase 3; Jurkat, 10 µM) [%] | cells with activated caspase 3 (caspase 3; Jurkat, 10 µM) [%] | cells positive for activated caspase 3 (caspase 3; Namalwa, 10 µM) [%] | cells with activated caspase 3 (caspase 3; Namalwa, 10 µM) [%] | cells positive for activated caspase 3 (caspase 3; U937, 10 µM) [%] | cells with activated caspase 3 (caspase 3; U937, 10 µM) [%] | cell death (alive, early- and late-apoptotic fractions) (tumour cell lines; three cancer lines, 10 µM) | fraction of cells expressing activated caspase 3 (caspase 3; 10 µM, cell line and time not specified, similar to untreated cells)
CC[C@H](C)[C@H](NC(=O)[C@H](CCCNC(=N)N)NC(=O)[C@H](CCCNC(=N)N)NC(=O)[C@H](CC(C)C)NC(=O)[C@H](CCC(=O)O)NC(=O)[C@H](CCC(N)=O)NC(=O)C(C)(C)NC(=O)[C@@H](NC(=O)[C@H](Cc1ccc(O)cc1)NC(=O)[C@@H](NC(=O)[C@H](CCC(=O)O)NC(=O)[C@@H]1CCCN1C(=O)[C@H](CCCNC(=N)N)NC(=O)[C@H](CCSC)NC(=O)[C@@H](N)CC(=O)O)[C@@H](C)CC)[C@@H](C)CC)C(=O)NCC(=O)N[C@@H](CC(=O)O)C(=O)N[C@@H](C)C(=O)N[C@@H](Cc1ccccc1)C(=O)N[C@@H](CC(N)=O)C(=O)NC(C)(C)C(=O)N[C@@H](Cc1ccc(O)cc1)C(=O)N[C@@H](CCCCN)C(=O)N[C@@H](CCCCN)C(=O)N[C@@H](Cc1c[nH]c2ccccc12)C(=O)N[C@@H](CCCCN)C(=O)N[C@@H](CCSC)C(=O)N[C@@H](CCCNC(=N)N)C(=O)N[C@@H](CCCNC(=N)N)C(=O)N[C@@H](CC(N)=O)C(=O)N1CCC[C@H]1C(=O)N[C@@H](Cc1ccccc1)C(=O)N[C@@H](Cc1c[nH]c2ccccc12)C(=O)N[C@H](C(=O)N[C@@H](CCCCN)C(=O)N[C@H](C(=O)N[C@@H](CCC(N)=O)C(=O)N[C@@H](CCCNC(=N)N)C(N)=O)[C@@H](C)CC)[C@@H](C)CC [Peptide 072RB] (H-DMRPEIYI[Aib]QELRRIGDAFN[Aib]YKKWKMRRNPFWIKIQR-NH2; N-terminus and C-terminus assumed) | Significant cell death | 22 | 35 | 35 | 60 | 30 | 70 | – | –
KKWKMRRNPFWIKIQR [Int, internalisation tag, a modified Q50P 16 aa Antennapedia IIIrd α-helix, reference compound] | – | – | – | – | – | – | – | substantially inactive | 1-3%
